Measured values: PubChem BioAssay (NCI)
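Briefly, cells in 96-well plates were exposed to five compound concentrations for 48 h, and endpoints were estimated by linear interpolation. TGI: total growth inhibition.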

Columns and labels:
Experiment in all cases: inhibition of tumour cell growth, NCI panel, 48 h
[1] = system: RXF-631 renal
[2] = system: SNB-78 CNS
[3] = system: MALME-3M melanoma
[4] = system: A549 NSCLC
[5] = system: HOP-92 NSCLC
[6] = system: UACC-62 melanoma
[7] = system: SK-MEL-5 melanoma
[8] = system: UACC-257 melanoma
[9] = system: M19-MEL melanoma
[10] = system: NCI-H460 lung
[11] = system: SN12C renal
[12] = system: DMS 114 small cell lung
[13] = system: COLO 205 colon
[14] = system: DMS 273 small cell lung
[15] = system: SK-MEL-2 melanoma
[16] = system: HT29 colon
[17] = system: KM12 colon
[18] = system: M14 melanoma
[19] = system: K-562 leukemia
[20] = system: SF-295 CNS
[21] = system: RPMI-8226 leukemia
[22] = system: IGROV1 ovarian
[23] = system: RXF 393 renal
[24] = system: SK-MEL-28 melanoma
[25] = system: 786-0 renal
[26] = system: LOX IMVI melanoma
[27] = system: OVCAR-3 ovarian
[28] = system: SF-268 CNS
[29] = system: OVCAR-8 ovarian
[30] = system: EKVX NSCLC
[31] = system: LXFL 529 NSCLC
[32] = system: SNB-19 CNS
[33] = system: SW-620 colon
[34] = system: UO-31 renal
[35] = system: MOLT-4 leukemia
[36] = system: NCI-H226 lung
[37] = system: CAKI-1 renal
[38] = system: OVCAR-5 ovarian
[39] = system: HCC-2998 colon
[40] = system: KM20L2 colon
[41] = system: ACHN renal
[42] = system: U251 CNS
[43] = system: HL-60(TB) leukemia
[44] = system: DLD-1 colon
[45] = system: NCI-H23 lung
[46] = system: SF-539 CNS
[47] = system: CCRF-CEM leukemia
[48] = system: HCT-116 colon
[49] = system: HCT-15 colon
[50] = system: OVCAR-4 ovarian
[51] = system: A498 renal
[52] = system: HOP-62 NSCLC
[53] = system: TK-10 renal
[54] = system: SNB-75 CNS
[55] = system: NCI-H522 lung
[56] = system: SK-OV-3 ovarian
[57] = system: XF 498 CNS
[58] = system: HOP-18 NSCLC

Cc1cc(N(CCC#N)CCC#N)ccc1/C=C(\NC(=O)/C=C/c1ccccc1)NC(=O)Nc1ccccc1C
TGI [1]: > 100 µM | TGI [2]: > 100 µM | TGI [3]: > 100 µM | TGI [4]: > 100 µM | TGI [5]: 62 µM | TGI [6]: > 100 µM | TGI [7]: > 100 µM | TGI [8]: > 100 µM | TGI [9]: > 100 µM | TGI [10]: > 100 µM | TGI [11]: > 100 µM | TGI [12]: > 100 µM | TGI [13]: > 100 µM | TGI [14]: > 100 µM | TGI [15]: > 100 µM | TGI [16]: > 100 µM | TGI [17]: > 100 µM | TGI [18]: > 100 µM | TGI [19]: > 100 µM | TGI [20]: > 100 µM | TGI [21]: > 100 µM | TGI [22]: > 100 µM | TGI [23]: 63.4 µM | TGI [24]: > 100 µM | TGI [25]: > 100 µM | TGI [26]: > 100 µM | TGI [27]: > 100 µM | TGI [28]: > 100 µM | TGI [29]: > 100 µM | TGI [30]: > 100 µM | TGI [31]: > 100 µM | TGI [32]: > 100 µM | TGI [33]: > 100 µM | TGI [34]: > 100 µM | TGI [35]: > 100 µM | TGI [36]: > 100 µM | TGI [37]: > 100 µM | TGI [38]: > 100 µM | TGI [39]: > 100 µM | TGI [40]: > 100 µM | TGI [41]: > 100 µM | TGI [42]: 42.7 µM | TGI [43]: > 100 µM | TGI [44]: > 100 µM | TGI [45]: > 100 µM | TGI [46]: > 100 µM | TGI [47]: > 100 µM | TGI [48]: > 100 µM | TGI [49]: > 100 µM | TGI [50]: > 100 µM | TGI [51]: > 100 µM

Cc1cc(Cl)ccc1NC(=O)C1C(=O)C(=O)N(c2ccc(Cl)cc2C)C1=O (stereo not drawn)
TGI [1]: > 100 µM | TGI [2]: > 100 µM | TGI [3]: > 100 µM | TGI [4]: > 100 µM | TGI [5]: 54.2 µM | TGI [6]: > 100 µM | TGI [7]: > 100 µM | TGI [8]: > 100 µM | TGI [9]: > 100 µM | TGI [11]: > 100 µM | TGI [12]: 68.1 µM | TGI [13]: > 100 µM | TGI [14]: > 100 µM | TGI [15]: > 100 µM | TGI [16]: > 100 µM | TGI [18]: > 100 µM | TGI [19]: > 100 µM | TGI [20]: > 100 µM | TGI [52]: > 100 µM | TGI [53]: > 100 µM | TGI [21]: > 100 µM | TGI [22]: > 100 µM | TGI [24]: > 100 µM | TGI [25]: > 100 µM | TGI [26]: > 100 µM | TGI [27]: > 100 µM | TGI [28]: > 100 µM | TGI [29]: > 100 µM | TGI [30]: > 100 µM | TGI [31]: > 100 µM | TGI [32]: 68.1 µM | TGI [33]: > 100 µM | TGI [34]: > 100 µM | TGI [35]: > 100 µM | TGI [36]: > 100 µM | TGI [37]: > 100 µM | TGI [38]: > 100 µM | TGI [39]: > 100 µM | TGI [40]: > 100 µM | TGI [41]: > 100 µM | TGI [42]: > 100 µM | TGI [54]: > 100 µM | TGI [43]: > 100 µM | TGI [44]: > 100 µM | TGI [55]: > 100 µM | TGI [45]: > 100 µM | TGI [46]: > 100 µM | TGI [47]: > 100 µM | TGI [48]: > 100 µM | TGI [49]: > 100 µM | TGI [50]: > 100 µM | TGI [56]: > 100 µM | TGI [51]: > 100 µM

O=S(Cc1cnc2ccccc2c1)c1nc2ccccc2nc1-c1cccs1 (stereo not drawn)
TGI [2]: 50.7 µM | TGI [3]: 37.7 µM | TGI [4]: 48.6 µM | TGI [5]: 25 µM | TGI [8]: 31.2 µM | TGI [11]: 32.8 µM | TGI [12]: 25.8 µM | TGI [13]: 42 µM | TGI [14]: 34.9 µM | TGI [16]: 37.1 µM | TGI [18]: 32.2 µM | TGI [19]: > 100 µM | TGI [20]: 61 µM | TGI [21]: > 100 µM | TGI [22]: 33.4 µM | TGI [24]: 34.9 µM | TGI [25]: 27.3 µM | TGI [27]: 34.7 µM | TGI [28]: 39.6 µM | TGI [29]: 51.7 µM | TGI [30]: 25 µM | TGI [31]: 20.8 µM | TGI [32]: 43.6 µM | TGI [34]: 28.3 µM | TGI [35]: > 100 µM | TGI [36]: 11.6 µM | TGI [38]: 28.5 µM | TGI [57]: 16.9 µM | TGI [41]: 26.4 µM | TGI [42]: 33.5 µM | TGI [58]: 31.7 µM | TGI [54]: 39.3 µM | TGI [43]: 72.8 µM | TGI [45]: 35.7 µM | TGI [46]: 32.8 µM | TGI [47]: > 100 µM | TGI [48]: 22.4 µM | TGI [50]: 24.6 µM | TGI [56]: 73 µM

COc1ccc(/C=C/C(=O)c2c(-c3ccccc3)nn(C)c(=O)c2N2CCCC2)cc1
TGI [4]: > 100 µM | TGI [5]: 37.5 µM | TGI [6]: > 100 µM | TGI [7]: > 100 µM | TGI [9]: > 100 µM | TGI [10]: > 100 µM | TGI [11]: > 100 µM | TGI [12]: > 100 µM | TGI [13]: > 100 µM | TGI [14]: > 100 µM | TGI [16]: > 100 µM | TGI [18]: > 100 µM | TGI [19]: > 100 µM | TGI [20]: > 100 µM | TGI [53]: > 100 µM | TGI [21]: > 100 µM | TGI [22]: > 100 µM | TGI [24]: > 100 µM | TGI [25]: > 100 µM | TGI [26]: > 100 µM | TGI [28]: > 100 µM | TGI [29]: > 100 µM | TGI [30]: > 100 µM | TGI [31]: > 100 µM | TGI [33]: > 100 µM | TGI [34]: > 100 µM | TGI [35]: > 100 µM | TGI [57]: > 100 µM | TGI [40]: > 100 µM | TGI [41]: > 100 µM | TGI [42]: > 100 µM | TGI [58]: > 100 µM | TGI [43]: > 100 µM | TGI [44]: > 100 µM | TGI [46]: > 100 µM | TGI [47]: > 100 µM | TGI [48]: > 100 µM | TGI [49]: > 100 µM | TGI [56]: > 100 µM | TGI [51]: > 100 µM
